Reference: patent US12723039B2, “Small molecule inhibitors of SLC15A4 with anti-inflammatory activity” (THE SCRIPPS RESEARCH INSTITUTE, priority 2020, dated 2026)

Legend:
[1] = target: T1, SLC25A20 (Homo sapiens, UniProt O43772); conditions: previously published work (ref. 46); cited from earlier work
T1 construct: endogenous in cells
T1 sequence (O43772 1-301): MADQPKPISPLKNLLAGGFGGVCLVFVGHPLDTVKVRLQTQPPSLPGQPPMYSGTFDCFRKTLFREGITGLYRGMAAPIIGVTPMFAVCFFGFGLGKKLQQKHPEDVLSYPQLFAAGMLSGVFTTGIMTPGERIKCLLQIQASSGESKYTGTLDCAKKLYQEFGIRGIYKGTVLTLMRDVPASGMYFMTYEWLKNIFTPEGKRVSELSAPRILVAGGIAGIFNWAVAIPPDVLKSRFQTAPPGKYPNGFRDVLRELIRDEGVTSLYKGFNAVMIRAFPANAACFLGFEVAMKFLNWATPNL

[2] = target: T2, human SLC15A4 dileucine mutant (L14A, L15A, L318A, V319A) (Homo sapiens, UniProt Q8N697, L14A/L15A/L318A/V319A); assay: SLC15A4 transport NFκB luciferase reporter assay in A549 cells; assay type: cell-based; conditions: for suppression of MDP or Tri-DAP induced NFκB luciferase: A549 cells with membrane-trafficked SLC15A4 mutant; for block of MDP transport in a dose-dependent fashion: FIG. 9
T2 construct: expressed in transfected cells
Excerpt: Development of SLC15A4-Transport Luciferase Reporter Assay. […] The precise substrate scope of endolysosomal SLC15A4 is not established. However, several studies have implicated SLC15A4 to be a transporter of the bacterial-derived peptidoglycans, such as MDP and Tri-DAP, which are ligands of the immune sensors NOD1 and NOD2^27-29, 48. Recently, it has been shown that disruption of the dileucine motifs (DE)-XXXL-(L/I) or DXXLL of SLC15A3^49 and SLC15A4^50 can result in successful targeting to the plasma membrane. Considering that NODs signal through the NFκB pathway, we sought to develop an NFκB reporter assay as a strategy to measure SLC15A4 transport in cells.
Briefly, both wildtype (WT) human SLC15A4 and a dileucine mutant (L14A, LISA, L318A, V319A) were cloned in frame with the mCherry using a (GGGGS)3 linker in the pLPC lentiviral backbone. Lentiviral vectors were packaged in psPAX2 and pMD2.G packing plasmids and used to generate stable cell lines expressing either SLC15A4 WT or membrane-trafficked SLC15A4 mutant A549 cells (FIG. 5A). Stable reporter cells were subsequently generated from these SLC15A4 cell lines using the Promega Dual-Luciferase Reporter system (pGLA4.32 [luc2P/NFκB-RE/Hygro]) containing five copies of an NF-κB response element. We confirmed the production of luciferase upon exposure to MDP or Tri-DAP NOD ligands ([…]), which is suppressed when exposed to either triptolide (an NF[…]B inhibitor, FIG. 5C) ML130 (NOD1 inhibitor, not shown) or GSK717 (NOD2 inhibitor, not shown).

[3] = system: CpG (TLR9); assay: In vivo model of inflammation: CpG co-injection, serum cytokines; conditions: mice co-injected with compound and CpG (TLR9), single dose, serum after 6 hr
[4] = system: endogenous NOD signaling in human macrophages; assay: Endogenous NOD signaling in human macrophages; assay type: cell-based; conditions: FIG. 11
[5] = system: endogenous NOD signaling in mouse macrophages; assay: Endogenous NOD signaling in mouse macrophages; assay type: cell-based; conditions: FIG. 11

T2 sequence (Q8N697 whole entry L14A/L15A/L318A/V319A): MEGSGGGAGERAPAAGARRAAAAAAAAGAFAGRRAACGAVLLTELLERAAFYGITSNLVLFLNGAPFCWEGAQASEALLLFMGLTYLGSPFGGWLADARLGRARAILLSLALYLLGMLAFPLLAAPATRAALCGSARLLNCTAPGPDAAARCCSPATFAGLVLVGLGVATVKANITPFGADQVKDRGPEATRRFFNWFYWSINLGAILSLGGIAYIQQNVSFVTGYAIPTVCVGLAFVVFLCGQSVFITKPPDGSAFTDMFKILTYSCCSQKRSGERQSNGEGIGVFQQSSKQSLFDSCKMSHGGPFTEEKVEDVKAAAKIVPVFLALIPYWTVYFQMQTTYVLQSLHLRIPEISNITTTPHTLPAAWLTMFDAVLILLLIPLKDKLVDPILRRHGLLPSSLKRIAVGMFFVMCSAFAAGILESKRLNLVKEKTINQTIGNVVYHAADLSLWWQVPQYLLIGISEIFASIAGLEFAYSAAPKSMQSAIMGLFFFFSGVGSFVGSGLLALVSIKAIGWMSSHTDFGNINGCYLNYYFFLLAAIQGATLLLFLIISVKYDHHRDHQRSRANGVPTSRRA

Compound	block of MDP transport in a dose-dependent fashion [2]	in vivo efficacy: serum cytokines after CpG [3]	other results
C#CCCC1(CCC(=O)Nc2ccc3oc(=O)ccc3c2)N=N1 [FFF 3]			engagement of SLC25A20 [1]: highly engages
CC(C)[C@]12O[C@H]1[C@@H]1O[C@]13[C@]1(O[C@H]1C[C@H]1C4=C(CC[C@@]13C)C(=O)OC4)[C@@H]2O [triptolide, reference compound]			suppression of MDP or Tri-DAP induced NFκB luciferase [2]: suppressed
CCCC(=O)N(Cc1ccc2[nH]ccc2c1)C1Cc2ccccc2C1 [AJ2-22, N-((1H-indol-5-yl)methyl)-N-(2,3-dihydro-1H-inden-2-yl)butyramide]	inactive controls	inactive control	
Cc1ccc(S(=O)(=O)n2c(N)nc3ccccc32)cc1 [ML130, reference compound]			suppression of MDP or Tri-DAP induced NFκB luciferase [2]: suppressed
CCCC(=O)n1c(NCc2c[nH]c3ccc(Br)cc23)nc2ccccc21 [AJ2-3, 1-(2-(((5-bromo-1H-indol-3-yl)methyl)amino)-1H-benzo[d]imidazol-1-yl)butan-1-one]		active	
CCn1c2ccccc2c2cc(CNc3nc4ccccc4n3C)ccc21 [AJ2-30, N-((9-ethyl-9H-carbazol-3-yl)methyl)-1-methyl-1H-benzo[d]imidazol-2-amine]	active	active	block of endogenous NOD signaling in human macrophages [4]: active; block of endogenous NOD signaling in mouse macrophages [5]: active
CCCC(=O)N(Cc1ccc2[nH]ccc2c1)C1Cc2ccccc2NC1=O (stereo not drawn) [AJ2-18, N-((1H-indol-5-yl)methyl)-N-(2-oxo-1,2,3,4-tetrahydroquinolin-3-yl)butyramide]	inactive controls		
Brc1ccc2[nH]cc(CNc3nc4ccccc4[nH]3)c2c1 [AJ2-3A, N-((5-bromo-1H-indol-3-yl)methyl)-1H-benzo[d]imidazol-2-amine]	active		
